Biological target: T1, FimH (Escherichia coli, UniProt Q1R2J4)
T1 construct: performed with UTI89 bacteria and guinea pig red blood cells; endogenous in cells; host or cells: UTI89 bacteria (whole cells, type 1 piliated)
Format: cell-based
Conditions: concentration reducing bacterial agglutination of guinea pig red blood cells by greater than 90%; UTI89 bacteria
Procedure: The hemagglutination inhibition (HAI) assay was performed with UTI89 bacteria and guinea pig red blood cells, as previously described (S. J. Hultgren, W. R. Schwan, A. J. Schaeffer, J. L. Duncan Infect. Immun. 1986, 54, 613-620).

SMILES	HAI titer EC>90 [µM]
O=C1NCCc2ccc(-c3ccc([C@H](O)[C@H]4O[C@H](CO)[C@@H](O)[C@H](O)[C@@H]4O)c(C(F)(F)F)c3)cc21 [Example 34, 7-(4-((S)-hydroxy ((2R,3S,4S,5S,6R)-3,4,5-trihydroxy-6-(hydroxymethyl)tetrahydro-2H-pyran-2-yl)methyl)-3-(trifluoromethyl)phenyl)-3,4-dihydroisoquinolin-1 (2H)-one]	3
Cc1cc(-c2ccnc(N3CCOCC3)c2)ccc1[C@@H](O)[C@H]1O[C@H](CO)[C@@H](O)[C@H](O)[C@@H]1O [Example 25, (2R,3S,4S,5S,6R)-2-((R)-Hydroxy (2-methyl-4-(2-morpholinopyridin-4-yl)phenyl)methyl)-6-(hydroxymethyl)-tetrahydro-2H-pyran-3,4,5-triol]	0.006
Cc1cc(-c2ccc3ncccc3c2)ccc1[C@@H](O)[C@H]1O[C@H](CO)[C@@H](O)[C@H](O)[C@@H]1O [Example 14, (2R,3S,4S,5S,6R)-2-((R)-Hydroxy (2-methyl-4-(quinolin-6-yl)phenyl)methyl)-6-(hydroxymethyl)-tetrahydro-2H-pyran-3,4,5-triol]	0.032
CNC(=O)c1cccc(-c2ccc([C@@H](N=[N+]=[N-])[C@H]3O[C@H](CO)[C@@H](O)[C@H](O)[C@@H]3O)c(C)c2)c1 [Example 44, 4′-((R)-azido((2R,3S,4R,5S,6R)-3,4,5-trihydroxy-6-(hydroxymethyl)tetrahydro-2H-pyran-2-yl)methyl)-N,3′-dimethylbiphenyl-3-carboxamide]	0.062
Cc1cc(-c2cccc3c(N)n[nH]c23)ccc1[C@@H](O)[C@H]1O[C@H](CO)[C@@H](O)[C@H](O)[C@@H]1O [Example 18, (2R,3S,4S,5S,6R)-2-((R)-(4-(3-Amino-1H-indazol-7-yl)-2-methylphenyl) (hydroxy)methyl)-6-(hydroxymethyl)-tetrahydro-2H-pyran-3,4,5-triol]	0.006
Cc1cc(-c2ccc3cc[nH]c(=O)c3c2)cc(C)c1[C@H](O)[C@H]1OC(CO)[C@@H](O)[C@H](O)C1O (single isomer, unassigned) [Example 30]	0.406
CNC(=O)c1cccc(-c2ccc([C@@H](N)[C@H]3O[C@H](CO)[C@@H](O)[C@H](O)[C@@H]3O)c(C)c2)c1 [Example 6, 4′-((R)-amino((2R,3S,4R,5S,6R)-3,4,5-trihydroxy-6-(hydroxymethyl)tetrahydro-2H-pyran-2-yl)methyl)-N,3′-dimethylbiphenyl-3-carboxamide]	0.5
Cc1cc(-c2cccc(C(=O)N(C)C)c2)ccc1[C@@H](O)[C@H]1O[C@H](CO)[C@@H](O)[C@H](O)[C@@H]1O [Example 41, 4′-((R)-Hydroxy ((2R,3S,4S,5S,6R)-3,4,5-trihydroxy-6-(hydroxymethyl)-tetrahydro-2H-pyran-2-yl)methyl)-N,N,5′-trimethylbiphenyl-3-carboxamide]	0.057
Cc1cc(-c2ccc3c(c2)C(=O)N(C)CC3)ccc1[C@@H](O)[C@H]1O[C@H](CO)[C@@H](O)[C@H](O)[C@@H]1O [Example 12, 7-(4-((R)-Hydroxy ((2R,3S,4S,5S,6R)-3,4,5-trihydroxy-6-(hydroxymethyl)-tetrahydro-2H-pyran-2-yl)methyl)-3-methylphenyl)-2-methyl-3,4-dihydroisoquinolin-1 (2H)-one]	0.008
CNC(=O)c1cncc(-c2ccc([C@@H](O)[C@H]3O[C@H](CO)[C@@H](O)[C@H](O)[C@@H]3O)c(C)c2)c1 [Example 35, 5-(4-((R)-Hydroxy ((2R,3S,4S,5S,6R)-3,4,5-trihydroxy-6-(hydroxymethyl)-tetrahydro-2H-pyran-2-yl)methyl)-3-methylphenyl)-N-methylnicotinamide]	0.01
Cc1cc(-c2ccc3ccn(C)c(=O)c3c2)ccc1[C@@H](O)[C@H]1O[C@H](CO)[C@@H](O)[C@H](O)[C@@H]1O [Example 11, 7-(4-((R)-Hydroxy ((2R,3S,4S,5S,6R)-3,4,5-trihydroxy-6-(hydroxymethyl)-tetrahydro-2H-pyran-2-yl)methyl)-3-methylphenyl)-2-methylisoquinolin-1 (2H)-one]	0.011
Cc1cc(-c2ccc3onc(N)c3c2)ccc1[C@@H](O)[C@H]1O[C@H](CO)[C@@H](O)[C@H](O)[C@@H]1O [Example 28, (2R,3S,4S,5S,6R)-2-((R)-(4-(3-Aminobenzo[d]isoxazol-5-yl)-2-methylphenyl) (hydroxy)methyl)-6-(hydroxymethyl)-tetrahydro-2H-pyran-3,4,5-triol]	0.027
Cc1cc(-c2ccc3cnccc3c2)ccc1[C@@H](O)[C@H]1O[C@H](CO)[C@@H](O)[C@H](O)[C@@H]1O [Example 10, (2R,3S,4S,5S,6R)-2-((R)-Hydroxy (4-(isoquinolin-6-yl)-2-methylphenyl)methyl)-6-(hydroxymethyl)-tetrahydro-2H-pyran-3,4,5-triol]	0.052
Cc1cc(-c2cccc3c2CCN(C)C3)ccc1[C@@H](O)[C@H]1O[C@H](CO)[C@@H](O)[C@H](O)[C@@H]1O [Example 5, (2R,3S,4S,5S,6R)-2-((R)-hydroxy(2-methyl-4-(2-methyl-1,2,3,4-tetrahydroisoquinolin-5-yl)phenyl)methyl)-6-(hydroxymethyl)tetrahydro-2H-pyran-3,4,5-triol]	1
Cc1cc(-c2ccc3cc[nH]c(=O)c3c2)cc(C)c1[C@@H](O)[C@H]1OC(CO)[C@@H](O)[C@H](O)C1O (single isomer, unassigned) [Example 29]	0.108
Cc1cc(-c2ccc3ncn(C)c3c2)ccc1[C@@H](O)[C@H]1O[C@H](CO)[C@@H](O)[C@H](O)[C@@H]1O [Example 16, (2R,3S,4S,5S,6R)-2-((R)-Hydroxy (2-methyl-4-(3-methyl-3H-benzo[d]imidazol-5-yl)phenyl)methyl)-6-(hydroxymethyl)-tetrahydro-2H-pyran-3,4,5-triol]	0.042
CNC(=O)c1cc(-c2ccc([C@@H](O)[C@H]3O[C@H](CO)[C@@H](O)[C@H](O)[C@@H]3O)c(C)c2)ccc1C#N [Example 43, 4-Cyano-4′-((R)-hydroxy ((2R,3S,4S,5S,6R)-3,4,5-trihydroxy-6-(hydroxymethyl)-tetrahydro-2H-pyran-2-yl)methyl)-N,5′-dimethylbiphenyl-3-carboxamide]	0.006
Cc1cc(-c2cccc(C#N)c2)ccc1[C@@H](O)[C@H]1O[C@H](CO)[C@@H](O)[C@H](O)[C@@H]1O [Example 51, 4′-((R)-hydroxy((2R,3S,4S,5S,6R)-3,4,5-trihydroxy-6-(hydroxymethyl)tetrahydro-2H-pyran-2-yl)methyl)-3′-methylbiphenyl-3-carbonitrile]	0.026
Cc1cc(-c2ccnc(N(C)C)c2)ccc1[C@@H](O)[C@H]1O[C@H](CO)[C@@H](O)[C@H](O)[C@@H]1O [Example 27, (2R,3S,4S,5S,6R)-2-((R)-(4-(2-(Dimethylamino)pyridin-4-yl)-2-methylphenyl) (hydroxy)methyl)-6-(hydroxymethyl)-tetrahydro-2H-pyran-3,4,5-triol]	0.016

From patent publication US20200002303A1, “C-GLYCOSIDE COMPOUNDS USEFUL FOR TREATING DISEASE” (Fimbrion Therapeutics, Inc., priority 2016, published 2020)
